Source: patent US10849893B2 (Athenex HK Innovative Limited, priority 2018, dated 2020)
Where “and” joins values, the source holds several entries; their conditions need not be identical. Equal entries are not always repeated. Where two headings read alike, the source gives them in different places.

Tests used:
[1] = parameters: Dose Normalized AUC: unit not given beside the values; conditions: cited from earlier work
[2] = oral 150 mg/m^2 with Compound A, individual subjects
[3] = oral 225 mg/m^2 with Compound A, Mean, N=3
[4] = oral 225 mg/m^2 with Compound A, individual subjects
[5] = IV 20 mg/m^2, infusion 1 h, n = 1
[6] = IV 20 mg/m^2, infusion 24 h, n = 1
[7] = IV 30 mg/m^2, infusion 1.58 (0.80) h, n = 2
[8] = IV 40 mg/m^2, infusion 1 h, n = 1
[9] = IV 40 mg/m^2, infusion 24 h, n = 3
[10] = IV 55 mg/m^2, infusion 1.68 (0.75) h, n = 3
[11] = IV 55 mg/m^2, infusion 24 h, n = 4
[12] = IV 70 mg/m^2, infusion 1.37 (0.53) h, n = 2
[13] = IV 70 mg/m^2, infusion 24 h, n = 3
[14] = IV 85 mg/m^2, infusion 1.61 (0.81) h, n = 6
[15] = IV 90 mg/m^2, infusion 24 h, n = 5
[16] = IV 100 mg/m^2, infusion 2.03 (0.09) h, n = 4
[17] = IV 115 mg/m^2, infusion 1.84 (0.28) h, n = 4
[18] = male, human, in vivo, po, 75 mg/m2
[19] = mean oral (75 mg/m^2) as % of mean IV (60 mg/m^2)
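Throughout, for AUC % Extrapobs: noncompartmental pharmacokinetic analysis in subjects with solid tumors, using linear-up log-down interpolation, with terminal slope time points picked automatically by the software.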
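Throughout, for AUC0-12: noncompartmental pharmacokinetic analysis in subjects with solid tumors, using linear-up log-down interpolation, with terminal slope time points picked automatically by the software.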
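Throughout, for AUC0-48: noncompartmental pharmacokinetic analysis in subjects with solid tumors, using linear-up log-down interpolation, with terminal slope time points picked automatically by the software.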
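Throughout, for AUCINF—obs: noncompartmental pharmacokinetic analysis in subjects with solid tumors, using linear-up log-down interpolation, with terminal slope time points picked automatically by the software.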

SMILES: CC(=O)O[C@@]12CO[C@@H]1C[C@H](O)[C@@]1(C)C(=O)[C@H](O)C3=C(C)[C@@H](OC(=O)[C@H](O)[C@@H](NC(=O)OC(C)(C)C)c4ccccc4)C[C@@](O)([C@@H](OC(=O)c4ccccc4)[C@H]21)C3(C)C [docetaxel, (2aR,4S,4aS,6R,9S,11S,12S,12aR,12b S)-12b-acetoxy-9-(((2R,3S)-3-((tert-butoxycarbonyl)amino)-2-hydroxy-3-phenylpropanoyl)oxy)-4,6,11-trihydroxy-4a,8,13,13-tetramethyl-5-oxo-2a,3,4,4a,5,6,9,10,11,12,12a, 12b-dodecahydro-1H-7,11-methanocyclodeca[3,4]benzo[1,2-b]oxet-12-yl benzoate]
- Dose Normalized AUC (oral 150 mg/m^2 with Compound A): 26.70
- AUC0-12 [2]: 898 ng·h/mL and 650 ng·h/mL
- AUC0-24 [2]: 1050 ng·h/mL and 720 ng·h/mL and 490 ng·h/mL
- AUC0-48 [2]: 1150 ng·h/mL and 775 ng·h/mL and 538 ng·h/mL
- AUC % Extrapobs [2]: 5.59% and 2.53% and 5.32%
- AUCINF—obs [2]: 1380 ng·h/mL and 876 ng·h/mL and 673 ng·h/mL
- Cmax [2]: 136 ng/mL and 112 ng/mL
- Tmax [2]: 2.00 h and 4.00 h
- t1/2 [2]: 63.3 h
- AUC0-24 (oral 150 mg/m^2 with Compound A, individual subjects by cancer diagnosis): 490 to 1050 ng·h/mL
- AUC0-24 (oral 150 mg/m^2 with Compound A, individual subjects by cancer diagnosis, listed as Docetaxel): 1050 ng·h/mL and 720 ng·h/mL and 490 ng·h/mL
- AUC0-12 [3]: 618 ng·h/mL
- AUC % Extrapobs [3]: 4.93%
- Cmax [3]: 114 ng/mL
- Tmax [3]: 1.00 h
- AUC0-12 [4]: 835 ng·h/mL and 380 ng·h/mL and 637 ng·h/mL
- AUC0-24 [4]: 416 ng·h/mL and 974 ng·h/mL
- AUC0-48 [4]: 1100 ng·h/mL and 443 ng·h/mL and 1200 ng·h/mL
- AUC % Extrapobs [4]: 6.48% and 3.06% and 5.26%
- AUCINF—obs [4]: 1390 ng·h/mL and 517 ng·h/mL and 1650 ng·h/mL
- Cmax [4]: 139 ng/mL and 84.7 ng/mL
- Tmax [4]: 2.00 h
- t1/2 [4]: 46.1 h
- AUC0-24 [1, 5]: 960 ng·h/mL
- Dose Normalized AUC [1, 5]: 48
- t1/2 γ [1, 5]: 2.2 h
- AUC0-24 [1, 6]: 920 ng·h/mL
- Dose Normalized AUC [1, 6]: 46
- AUC0-24 [1, 7]: 1260 ng·h/mL
- Cmax [1, 7]: 640 (450) ng/ml
- Dose Normalized AUC [1, 7]: 42
- t1/2 γ [1, 7]: 4.6 h
- AUC0-24 [1, 8]: 670 ng·h/mL
- Cmax [1, 8]: 420 ng/mL
- Dose Normalized AUC [1, 8]: 16.75
- t1/2 γ [1, 8]: 3.8 h
- AUC0-24 [1, 9]: 2190 ng·h/mL
- Dose Normalized AUC [1, 9]: 54.75
- AUC0-24 [1, 10]: 1420 ng·h/mL
- Cmax [1, 10]: 820 (380) ng/ml
- Dose Normalized AUC [1, 10]: 25.82
- t1/2 γ [1, 10]: 2 h
- AUC0-24 [1, 11]: 2560 ng·h/mL
- Dose Normalized AUC [1, 11]: 46.55
- AUC0-24 [1, 12]: 2790 ng·h/mL
- Cmax [1, 12]: 1910 (320) ng/ml
- Dose Normalized AUC [1, 12]: 39.86
- t1/2 γ [1, 12]: 2.5 h
- AUC0-24 [1, 13]: 3470 ng·h/mL
- Dose Normalized AUC [1, 13]: 49.57
- AUC0-24 [1, 14]: 4100 ng·h/mL
- Cmax [1, 14]: 2420 (920) ng/ml
- Dose Normalized AUC [1, 14]: 48.24
- t1/2 γ [1, 14]: 13.6 h
- AUC0-24 [1, 15]: 7810 ng·h/mL
- Dose Normalized AUC [1, 15]: 86.78
- AUC0-24 [1, 16]: 5930 ng·h/mL
- Cmax [1, 16]: 2410 (250) ng/ml
- Dose Normalized AUC [1, 16]: 59.30
- t1/2 γ [1, 16]: 18.5 h
- AUC0-24 [1, 17]: 5190 ng·h/mL
- Cmax [1, 17]: 2680 (930) ng/ml
- Dose Normalized AUC [1, 17]: 45.13
- t1/2 γ [1, 17]: 9.6 h
- Tmax Mean % (clinical; male, human, in vivo): 207.55%
- Average Time above Target (0 to last time point measured above 4 ng/ml) (clinical; male, human, in vivo, iv): 40.9 h
- Dose Normalized AUC (clinical; male, human, in vivo, iv): 27.17 ng·h/mL
- AUC(0-t) (clinical; male, human, in vivo, iv, 60 mg/m2, AUC0-24): 1350 to 1970 ng·h/mL
- AUC(0-inf) (clinical; male, human, in vivo, iv, 60 mg/m2, AUC0-inf): 1970 ng·h/mL
- AUC(0-t) (clinical; male, human, in vivo, iv, 60 mg/m2, AUC0-t): 1890 ng·h/mL
- Cmax (clinical; male, human, in vivo, iv, 60 mg/m2, Cmax): 1020 to 1570 ng/mL
- Tmax (clinical; male, human, in vivo, iv, 60 mg/m2, Tmax): 0.88 h
- half-life (clinical; male, human, in vivo, iv, Reported half-life): 17.4 h
- Average Time above Target (0 to last time point measured above 4 ng/ml) (clinical; male, human, in vivo, po): 20.5 h
- Dose Normalized AUC (clinical; male, human, in vivo, po): 23.33 ng·h/mL
- AUC(0-inf) (clinical; [18]): 476 ng·h/mL
- half-life (clinical; [18]): 21.3 h
- AUC(0-t) (clinical; male, human, in vivo, po, 75 mg/m2, AUC0-24): 313 to 336 ng·h/mL
- AUC(0-inf) (clinical; male, human, in vivo, po, 75 mg/m2, AUC0-inf): 478 ng·h/mL
- AUC(0-t) (clinical; male, human, in vivo, po, 75 mg/m2, AUC0-t): 395 ng·h/mL
- half-life (clinical; male, human, in vivo, po, 75 mg/m2, Reported half-life): 16.4 h
- Tmax (clinical; male, human, in vivo, po, 75 mg/m2, Tmax): 1.83 h
- Cmax Mean % (clinical; [19]): 7.87%
- t1/2 Mean % (clinical; [19]): 104.60%
